Counter-ions that a name gives are not always drawn. Like-named read-outs stand apart in the source and are kept apart here. Peptide text beside a SMILES is read from it. * marks the point of attachment. Cbz = O=C(OCc1ccccc1)*
Assays:
[1] = system: ARID1A-KO HCT116 cells; test: Drug library screen, cell viability (CellTiter-Glo); format: cell-based, human; settings: Homo sapiens, HCT-116, 120 h, read-out: Cell viability, KO
Method in brief: (§1)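 Luminescent ATP read-out (CellTiter-Glo) at day 5, normalised to solvent (DMSO) controls, in paired HCT116 lines, ARID1A knockout versus wild type. Candidates selected where KO cells fell below 40% viability and WT cells stayed above 80%.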

[2] = as above; format: cell-based, human; settings: human
Method in brief: as §1

[3] = HCT116 ARID1A-KO, 10 μM for 5 days, relative to cells treated with solvent (DMSO)
[4] = HCT116 ARID1A-WT, 10 μM for 5 days, relative to cells treated with solvent (DMSO), read-out: Cell viability, WT

SMILES	viability at 10 µM [1, 3] [%]	viability at 5 days, 10 μM [2, 4] [%]	viability [2, 4] [%]	viability at 10 µM [1] [%]	viability at 5 days, 10 μM [2] [%]
CC[C@@]1(O)C(=O)OCc2c1cc1n(c2=O)Cc2cc3ccccc3nc2-1 [Camptothecin]	4.03	2.97			
C[C@@]12C(=O)OC(=O)[C@]1(C)[C@H]1CC[C@@H]2O1 [Cantharidin]	18.2		26.2		
C/C=C/C/C=C/CCC(=O)[C@H]1O[C@H]1C(N)=O [Cerulenin]	68.6	70			
CN1C(=O)[C@]2(Cc3cn([C@]45C[C@@]67SS[C@@](CO)(C(=O)N6[C@H]4Nc4ccccc45)N(C)C7=O)c4ccccc34)SS[C@@]1(CO)C(=O)N2C [Chetomin]	4.69		4.21		
CCOC(=O)C(C)(C)Oc1ccc(Cl)cc1 [Clofibrate]	111	110			
C[C@@H]1C[C@@H]([C@H](O)CC2CC(=O)NC(=O)C2)C(=O)[C@@H](C)C1 [Cycloheximide]	10.1		9.33		
COc1c(C=O)c(O)cc2c1C(=O)c1ccccc1C2=O [Damnacanthal]	138	185			
COc1cccc2c1C(=O)c1c(O)c3c(c(O)c1C2=O)C[C@@](O)(C(C)=O)C[C@@H]3O[C@H]1C[C@H](N)[C@H](O)[C@H](C)O1 [Daunorubicin, HCl]		5.21		4.45	
NC1=N/C(=C2/CCNC(=O)c3[nH]ccc32)C(=O)N1 [Debromohymenialdisine (DBH), Debromohymenialdisine]	72.2	62.9			
Nc1ncn([C@H]2C[C@H](O)[C@@H](CO)O2)c(=O)n1 [Decitabine]	30.4	30.8			
CCCCCCCCCCC1=C(C)C(=O)C(OC)=C(OC)C1=O [Decylubiquinone]	100	85.7			
OC[C@H]1NC[C@H](O)[C@@H](O)[C@@H]1O [Deoxynojirimycin]	121	106			
CN(N=O)c1cc(O)ccc1O [Dephostatin]	60.2		90.4		
Cc1cc(N)c2ccccc2[n+]1CCCCCCCCCC[n+]1c(C)cc(N)c2ccccc21 [Dequalinium]	5.24	6.38			
C[C@@H]1C[C@H]2[C@@H]3CCC4=CC(=O)C=C[C@]4(C)[C@@]3(F)[C@@H](O)C[C@]2(C)[C@@]1(O)C(=O)CO [Dexamethasone]	162	212			
O=c1c2ccccc2[nH]c(=S)n1CCN1CCC(=C(c2ccc(F)cc2)c2ccc(F)cc2)CC1 [Diacylglycerol kinase inhibitor II]	171	141			
CC1=NS(=O)(=O)c2cc(Cl)ccc2N1 [Diazoxide]	115	103			
COc1ccc([C@@H]2Sc3ccccc3N(CCN(C)C)C(=O)[C@@H]2OC(C)=O)cc1 [Diltiazem]	115	102			
COc1cccc2c1C(=O)c1c(O)c3c(c(O)c1C2=O)C[C@@](O)(C(=O)CO)C[C@@H]3O[C@H]1C[C@H](N)[C@H](O)[C@H](C)O1 [Doxorubicin, HCl]	4.14	4.81			
Cc1cc(Nc2cc(N3CCN(C)CC3)nc(/C=C/c3ccccc3)n2)n[nH]1 [ENMD-2076]	10.1	9.16			
O=c1oc2c(O)c(O)cc3c(=O)oc4c(O)c(O)cc1c4c23 [Ellagic acid]	161	127			
COc1cc([C@@H]2c3cc4c(cc3[C@@H](O[C@@H]3O[C@@H]5CO[C@@H](C)O[C@H]5[C@H](O)[C@H]3O)[C@H]3COC(=O)[C@H]23)OCO4)cc(OC)c1O [Etoposide (VP-16), Etoposide]	27.4	30.6			
C=CC[C@@H]1/C=C(\C)C[C@H](C)C[C@H](OC)[C@H]2O[C@@](O)(C(=O)C(=O)N3CCCC[C@H]3C(=O)O[C@H](/C(C)=C/[C@@H]3CC[C@@H](O)[C@H](OC)C3)[C@H](C)[C@@H](O)CC1=O)[C@H](C)C[C@@H]2OC [FK-506]	130	173			

SMILES	viability at 10 µM [1, 3] [%]	viability at 5 days, 10 μM [2, 4] [%]	viability [2, 4] [%]	viability at 10 µM [1] [%]	viability at 5 days, 10 μM [2] [%]
CC(C)(C)NC(=O)[C@H]1CC[C@H]2[C@@H]3CC[C@H]4NC(=O)C=C[C@]4(C)[C@H]3CC[C@]12C [Finasteride]	108	99.6			
CC(C)C(=O)Nc1ccc([N+](=O)[O-])c(C(F)(F)F)c1 [Flutamide]	126	163			
C[C@]12CCC(=O)C(O)=C1CC[C@@H]1[C@@H]2CC[C@]2(C)C(=O)CC[C@@H]12 [Formestane]	69.5		108		
CO[C@@H]1[C@H](OC(=O)/C=C/C=C/C=C/C=C/C(=O)O)CC[C@]2(CO2)[C@H]1[C@@]1(C)O[C@@H]1CC=C(C)C [Fumagillin]		96.4		82.2	
CNC(=O)[C@H](Cc1c[nH]c2ccccc12)NC(=O)[C@@H](CC(=O)NO)CC(C)C [GM 6001]	123	188			
O=c1c(-c2ccc(O)cc2)coc2cc(O)cc(O)c12 [Genistein]	118		173		
COc1ccc(Cl)cc1C(=O)NCCc1ccc(S(=O)(=O)NC(=O)NC2CCCCC2)cc1 [Glibenclamide]	109	108			
O=S(=O)(c1cccc2cnccc12)N1CCCNCC1 [HA1077]	73.8	155			
NC(=O)NO [Hydroxyurea]	117	157			
C[C@H](CCC(=O)O)C[C@H](C)C[C@H](C)C(=O)/C=C(\O)[C@H](C)C[C@H](C)C/C=C/[C@@H](C)[C@@H](O)[C@@H](C)[C@@H](O)C[C@@H]1CC[C@@](C)([C@H]2CC[C@@](C)([C@@H](C)O)O2)O1 [Ionomycin]	35.9		31.8		
CC1=C2C(=O)[C@H]3[C@@H](CC=C4C[C@@H](O)CC[C@@]43C)[C@@H]2CC[C@]12O[C@@H]1C[C@H](C)CN[C@H]1[C@H]2C [Jervine]	90.1		74.4		
O=C1Cc2c([nH]c3ccc(Br)cc23)-c2ccccc2N1 [Kenpaullone]	35	66.2			
CC(=O)N[C@@H](CSC(=O)[C@]1([C@@H](O)C(C)C)NC(=O)[C@H](C)[C@@H]1O)C(=O)O [Lactacystin]	26.1	32.6			
O=C(O)c1nn(Cc2ccc(Cl)cc2Cl)c2ccccc12 [Lonidamine]	116	98.4			
CC[C@H](C)C(=O)O[C@H]1C[C@@H](C)C=C2C=C[C@H](C)[C@H](CC[C@@H]3C[C@@H](O)CC(=O)O3)[C@H]21 [Lovastatin]	85.2	132			
CNC(=O)c1ccc(N2C(=S)N(c3ccc(C#N)c(C(F)(F)F)c3)C(=O)C2(C)C)cc1F [MDV3100]	94.9	88.8			
CC(C)C[C@@H](C=O)NC(=O)[C@H](CC(C)C)NC(=O)[C@H](CC(C)C)NC(=O)OCc1ccccc1 [MG-132] (Cbz-Leu-Leu-Leu-aldehyde)	2.45		3.45		
NC(=O)c1cccc2cn(-c3ccc([C@@H]4CCCNC4)cc3)nc12 [MK-4827 (Niraparib), Niraparib]	28.7	29.3			
COc1cc(Nc2ncc3c(n2)-c2ccc(Cl)cc2C(c2c(F)cccc2OC)=NC3)ccc1C(=O)O [MLN8237]	39.1	36.8			
CN(Cc1cnc2nc(N)nc(N)c2n1)c1ccc(C(=O)N[C@@H](CCC(=O)O)C(=O)O)cc1 [Methotrexate]	43.9	43			
CC#C[C@]1(O)CC[C@H]2[C@@H]3CCC4=CC(=O)CCC4=C3[C@@H](c3ccc(N(C)C)cc3)C[C@@]21C [Mifepristone]	85.3	95.9			
CCOC(=O)C1=C(C)NC(=S)NC1c1cccc(O)c1 (centres unmarked) [Monastrol]	104	102			
CC[C@@]1([C@@H]2O[C@@H]([C@H]3O[C@@](O)(CO)[C@H](C)C[C@@H]3C)C[C@@H]2C)CC[C@H]([C@]2(C)CC[C@]3(C[C@H](O)[C@@H](C)[C@@H]([C@@H](C)[C@@H](OC)[C@H](C)C(=O)O)O3)O2)O1 [Monensin]				3.95	3.45
